Assay results as given in ChEMBL document CHEMBL1147904, “Probing length effects and mechanism of cell penetrating agents mounted on a polyproline helix scaffold” (Bioorg Med Chem Lett, 2007).
Non-standard residues stand in square brackets, D forms with d. Residues, ends and D or L forms follow the SMILES beside them. *: point of attachment. X1 = O=C(O)c1cc(C(=O)*)ccc1-c1c2ccc(=O)cc-2oc2cc(O)ccc12; Propyl(3-guanidino) = N=C(N)NCCC*; Hyp = O=C(O)[C@@H]1C[C@@H](O)CN1; Isobutyl = CC(C)C*

Columns and labels:
MCF7 [1] = test: Cellular uptake in MCF7 cells assessed as mean fluorescence at 1 uM after 6 hrs; format: ADME, cell-based; conditions: human, mcf7, 6 h
MCF7 [2] = test: Cellular uptake in MCF7 cells assessed as mean fluorescence at 5 uM after 6 hrs; format: ADME, cell-based; conditions: human, mcf7, 6 h
MCF7 [3] = test: Cellular uptake in MCF7 cells assessed as mean fluorescence at 10 uM after 6 hrs; format: ADME, cell-based; conditions: human, mcf7, 6 h
MCF7 [4] = test: Cellular uptake in MCF7 cells assessed as mean fluorescence at 15 uM after 6 hrs; format: ADME, cell-based; conditions: human, mcf7, 6 h
MCF7 [5] = test: Decrease in cellular uptake in MCF7 cells at 15 uM at 4 degC after 6 hrs; format: ADME, cell-based; parameters: scale not given: the % may be the effect or the level left; conditions: human, mcf7, 6 h
MCF7 [6] = test: Decrease in cellular uptake in MCF7 cells at 15 uM at 37 degC after 6 hrs; format: ADME, cell-based; parameters: scale not given: the % may be the effect or the level left; conditions: human, mcf7, 6 h
MCF7 [7] = test: Decrease in cellular uptake in MCF7 cells at 15 uM in presence of sodium azideafter 6 hrs by flow cytometry; format: ADME, cell-based; parameters: scale not given: the % may be the effect or the level left; conditions: human, mcf7, 6 h
[8] = Cytotoxicity against MCF7 cells assessed as cell viability at 15 uM after 24 hrs by flow cytometry; format: cell-based; conditions: human, read-out: Activity

Row | Compound | Activity (MCF7 [1]) [a.u.] | Activity (MCF7 [2]) [a.u.] | Activity (MCF7 [3]) [a.u.] | Activity (MCF7 [4]) [a.u.] | Activity (MCF7 [5]) [%] | Activity (MCF7 [6]) [%] | Activity (MCF7 [7]) | viability at 24 h, 15 µM [8] [%]
1 | CC(C)CO[C@@H]1C[C@@H](C(=O)N2C[C@H](OCCCNC(=N)N)C[C@H]2C(=O)N2C[C@H](OCCCNC(=N)N)C[C@H]2C(=O)N2C[C@H](OCC(C)C)C[C@H]2C(=O)N2C[C@H](OCCCNC(=N)N)C[C@H]2C(=O)N2C[C@H](OCCCNC(=N)N)C[C@H]2C(=O)N2C[C@H](OCC(C)C)C[C@H]2C(=O)N2C[C@H](OCCCNC(=N)N)C[C@H]2C(=O)N2C[C@H](OCCCNC(=N)N)C[C@H]2C(=O)N2C[C@H](OCC(C)C)C[C@H]2C(N)=O)N(C(=O)CNC(=O)c2ccc(-c3c4ccc(=O)cc-4oc4cc(O)ccc34)c(C(=O)O)c2)C1 (X1-G[Hyp](Isobutyl)[Hyp](Propyl(3-guanidino))[Hyp](Propyl(3-guanidino))[Hyp](Isobutyl)[Hyp](Propyl(3-guanidino))[Hyp](Propyl(3-guanidino))[Hyp](Isobutyl)[Hyp](Propyl(3-guanidino))[Hyp](Propyl(3-guanidino))[Hyp](Isobutyl)-NH2) | 2 | 7 | 15 | 63 | 82 | 89 | Not Active | 80
2 | CC(C)CO[C@@H]1C[C@@H](C(=O)N2C[C@H](OCCCNC(=N)N)C[C@H]2C(=O)N2C[C@H](OCCCNC(=N)N)C[C@H]2C(=O)N2C[C@H](OCC(C)C)C[C@H]2C(=O)N2C[C@H](OCCCNC(=N)N)C[C@H]2C(=O)N2C[C@H](OCCCNC(=N)N)C[C@H]2C(=O)N2C[C@H](OCC(C)C)C[C@H]2C(=O)N2C[C@H](OCCCNC(=N)N)C[C@H]2C(=O)N2C[C@H](OCCCNC(=N)N)C[C@H]2C(=O)N2C[C@H](OCC(C)C)C[C@H]2C(=O)N2C[C@H](OCCCNC(=N)N)C[C@H]2C(=O)N2C[C@H](OCCCNC(=N)N)C[C@H]2C(=O)N2C[C@H](OCC(C)C)C[C@H]2C(N)=O)N(C(=O)CNC(=O)c2ccc(-c3c4ccc(=O)cc-4oc4cc(O)ccc34)c(C(=O)O)c2)C1 (X1-G[Hyp](Isobutyl)[Hyp](Propyl(3-guanidino))[Hyp](Propyl(3-guanidino))[Hyp](Isobutyl)[Hyp](Propyl(3-guanidino))[Hyp](Propyl(3-guanidino))[Hyp](Isobutyl)[Hyp](Propyl(3-guanidino))[Hyp](Propyl(3-guanidino))[Hyp](Isobutyl)[Hyp](Propyl(3-guanidino))[Hyp](Propyl(3-guanidino))[Hyp](Isobutyl)-NH2) | 4 | 30 | 177 | 420 | 82 | 89 | 19% | 80
